System: vascular smooth muscle cell (SMC)
Experiment: Effect on proliferation of vascular smooth muscle cell (SMC), XTT assay
Assay type: cell-based
Conditions: 1 uM; XTT absorbance at 450 nm at 1, 4 and 7 days; versus untreated control (FIG. 1)
Protocol: As cells used in a cell culture, the vascular smooth muscle cell (SMC) which is a smooth muscle cell, and the human umbilical vein endothelial cell (HUVEC) which is the cell for promoting vascular re-endothelialization were purchased from Korea Cell Line Bank, respectively. The cell culture was performed by culturing the vascular smooth muscle cell (SMC) and the human umbilical vein endothelial cell (HUVEC) in Dulbecoco's modified eagle medium (DMEM) with 10% fetal bovine serum (FBS) under conditions of 37° C. and 5% CO2. […]
(§1) 5×10^4 of SMC cells cultured according to Example 2 were cultured in the 24-well cell culture plate and then treated with 1 uM of the peptide compound prepared by Example 2 (hereinafter, referred to as ‘EVR-P’). […] After the reaction, 200 ul of the culture medium was transferred from each well to a 96 well cell culture dish, and degree of color change was measured from absorbance at a 450 nm wavelength by a spectroscopy.
as §1, with “the known Everolimus (EVR)(LC Laboratories).” for “the peptide compound prepared by Example 2 (hereinafter, referred to as ‘EVR-P’).”, “to the” for “to a”

**Q.** For `CO[C@H]1C[C@@H]2CC[C@@H](C)[C@@](O)(O2)C(=O)C(=O)N2CCCC[C@H]2C(=O)O[C@H]([C@H](C)C[C@@H]2CC[C@@H](OCCO)[C@H](OC)C2)CC(=O)[C@H](C)/C=C(\C)[C@@H](O)[C@@H](OC)C(=O)[C@H](C)C[C@H](C)/C=C/C=C/C=C/1C` [EVR, Everolimus], which SMC cell proliferation is on record?
**A.** cell proliferation was inhibited

Reference: patent US20160229893A1, “Novel Peptide Compound for Inhibiting Restenosis and Promoting Re-Endothelialization and Method for Preparing the Same” (Chonnam National University Hospital, priority 2014, published 2016)
